Tests used:
[1] = tested on: HeLa; test: Proliferation assay (crystal violet), HeLa; format: cell-based; details: Homo sapiens, HeLa, 96 h, HeLa cells; 4 days incubation; crystal violet staining; read-out: IC50 inhibition of proliferation, HeLa
Procedure, shortened: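 Absorbance at 595 nm of crystal-violet-stained cells after 4 days' exposure to 0.001–10 μM compound (0.5% DMSO). Values normalized to a day-0 plate (0%) and untreated cells (100%); IC50 by 4-parameter fit.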

[2] = tested on: human cervical tumor cell line HeLa (ATCC CCL-2); test: SAC-Formation - Nocodazole-Induced Assay; format: cell-based; details: Homo sapiens, HeLa, 24 h, HeLa cells, nocodazole 0.1 μg/ml together with test compound, decrease of mitotic cells (phospho-histone H3 Ser10)
Procedure, shortened: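 Loss of phospho-histone H3 Ser10-positive cells, counted against Hoechst-stained nuclei by high-content imaging, marked mitotic breakthrough. Compounds (0.005–20 μM, 0.5% DMSO) were co-dosed with 0.1 μg/ml nocodazole onto HeLa cells for 24 h at 37 °C. Curves were fitted with a four-parameter Hill equation.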

IC50 [1] [nM]	IC50 [2] [nM]	Structure (SMILES)
> 10000	460	Cc1nsc(Nc2cc(C#N)ccn2)c1C(=O)Nc1ccc(OCCC(=O)OC(C)(C)C)nc1 [Example 200, tert-butyl 3-({5-[({5-[(4-cyanopyridin-2-yl)amino]-3-methyl-1,2-thiazol-4-yl}carbonyl)amino]pyridin-2-yl}oxy)propanoate]
> 10000	520	Cc1nsc(Nc2cnc3ccccc3n2)c1C(=O)Nc1ccc(C(N)=O)c(F)c1 [Example 201, N-(4-carbamoyl-3-fluorophenyl)-3-methyl-5-(quinoxalin-2-ylamino)-1,2-thiazole-4-carboxamide]
> 10000	1300	Cc1nsc(Nc2ccc(C#N)cn2)c1C(=O)Nc1ccc(F)c(C(N)=O)c1 [Example 203, N-(3-carbamoyl-4-fluorophenyl)-5-[(5-cyanopyridin-2-yl)amino]-3-methyl-1,2-thiazole-4-carboxamide]
> 10000	6000	CC(=O)Nc1cc(NC(=O)c2c(C)nsc2Nc2cnccn2)ccc1F [Example 205, N-(3-acetamido-4-fluorophenyl)-3-methyl-5-(pyrazin-2-ylamino)-1,2-thiazole-4-carboxamide]
5100	110	CC(=O)Nc1cc(NC(=O)c2c(C)nsc2Nc2cnc(C(F)(F)F)cn2)ccc1F [Example 206, N-(3-acetamido-4-fluorophenyl)-3-methyl-5-{[5-(trifluoromethyl)pyrazin-2-yl]amino}-1,2-thiazole-4-carboxamide]
> 10000	200	CNC(=O)c1ccc(NC(=O)c2c(C)nsc2Nc2cnc3ccccc3n2)cc1F [Example 207, N-[3-fluoro-4-(methylcarbamoyl)phenyl]-3-methyl-5-(quinoxalin-2-ylamino)-1,2-thiazole-4-carboxamide]
> 10000	2100	Cc1nsc(Nc2cncc(C(F)(F)F)n2)c1C(=O)Nc1ccc(OCCCN)nc1 [Example 209, N-[6-(3-aminopropoxy)pyridin-3-yl]-3-methyl-5-{[6-(trifluoromethyl)pyrazin-2-yl]amino}-1,2-thiazole-4-carboxamide]
1900	3200	CNS(=O)(=O)c1ccc(NC(=O)c2c(C)nsc2Nc2cc(C#N)ccn2)cc1 [Example 210, 5-[(4-cyanopyridin-2-yl)amino]-3-methyl-N-[4-(methylsulfamoyl)phenyl]-1,2-thiazole-4-carboxamide]
9900	96	CNS(=O)(=O)c1ccc(NC(=O)c2c(C)nsc2Nc2cncc(C(F)(F)F)n2)cc1 [Example 211, 3-methyl-N-[4-(methylsulfamoyl)phenyl]-5-{[6-(trifluoromethyl)pyrazin-2-yl]amino}-1,2-thiazole-4-carboxamide]
2500	2700	Cc1nsc(Nc2cnc(C(F)(F)F)cn2)c1C(=O)Nc1ccc(C(=O)NCCN2CCCC(F)C2)cc1 (centres unmarked) [Example 213, N-(4-{[2-(3-fluoropiperidin-1-yl)ethyl]carbamoyl}phenyl)-3-methyl-5-{[5-(trifluoromethyl)pyrazin-2-yl]amino}-1,2-thiazole-4-carboxamide]
4600	320	Cc1nsc(Nc2cncc(C(F)(F)F)n2)c1C(=O)Nc1ccc(C(=O)NCCN2CCCC(F)(F)C2)cc1 [Example 214, N-(4-{[2-(3,3-difluoropiperidin-1-yl)ethyl]carbamoyl}phenyl)-3-methyl-5-{[6-(trifluoromethyl)pyrazin-2-yl]amino}-1,2-thiazole-4-carboxamide]
140	210	Cc1nsc(Nc2cnc(C(F)(F)F)cn2)c1C(=O)Nc1ccc(OCCNC(=O)OC(C)(C)C)c(F)c1 [Example 215, tert-butyl [2-(2-fluoro-4-{[(3-methyl-5-{[5-(trifluoromethyl)pyrazin-2-yl]amino}-1,2-thiazol-4-yl)carbonyl]amino}phenoxy)ethyl]carbamate]
520	140	Cc1nsc(Nc2cncc(C(F)(F)F)n2)c1C(=O)Nc1ccc(OCCNC(=O)OC(C)(C)C)c(F)c1 [Example 216, tert-butyl [2-(2-fluoro-4-{[(3-methyl-5-{[6-(trifluoromethyl)pyrazin-2-yl]amino}-1,2-thiazol-4-yl)carbonyl]amino}phenoxy)ethyl]carbamate]
> 10000	910	Cc1nsc(Nc2cncc(C(F)(F)F)n2)c1C(=O)Nc1ccc(OC2CCN(C)CC2)nc1 [Example 219, 3-methyl-N-{6-[(1-methylpiperidin-4-yl)oxy]pyridin-3-yl}-5-{[6-(trifluoromethyl)pyrazin-2-yl]amino}-1,2-thiazole-4-carboxamide]
2500	92	Cc1nsc(Nc2cnc(C(F)(F)F)cn2)c1C(=O)Nc1ccc(OCCN)c(F)c1 [Example 221, 3-N-[4-(2-aminoethoxy)-3-fluorophenyl]-3-methyl-5-{[5-(trifluoromethyl)pyrazin-2-yl]amino}-1,2-thiazole-4-carboxamide]
6200	770	Cc1nsc(Nc2cncc(C(F)(F)F)n2)c1C(=O)Nc1ccc(C(=O)NC2CCN(C(=O)OC(C)(C)C)CC2)cc1 [Example 222, tert-butyl 4-[(4-{[(3-methyl-5-{[6-(trifluoromethyl)pyrazin-2-yl]amino}-1,2-thiazol-4-yl)carbonyl]amino}benzoyl)amino] piperidine-1-carboxylate]
760	180	Cc1nsc(Nc2cncc(C(F)(F)F)n2)c1C(=O)Nc1ccc(OC2CCN(CCF)CC2)c(F)c1 [Example 223, N-(3-fluoro-4-{[1-(2-fluoroethyl)piperidin-4-yl]oxy}phenyl)-3-methyl-5-{[6-(trifluoromethyl)pyrazin-2-yl]amino}-1,2-thiazole-4-carboxamide]

The next lines start with the compound.

Structure (SMILES)	IC50 [1] [nM]	IC50 [2] [nM]
Cc1nsc(Nc2cncc(C(F)(F)F)n2)c1C(=O)Nc1ccc(OCCN)nc1 [Example 196, N-[6-(2-aminoethoxy)pyridin-3-yl]-3-methyl-5-{[6-(trifluoromethyl)pyrazin-2-yl]amino}-1,2-thiazole-4-carboxamide]	> 10000	1300
Cc1nsc(Nc2cnc(C(F)(F)F)cn2)c1C(=O)Nc1ccc(OCCN)nc1 [Example 197, N-[6-(2-aminoethoxy)pyridin-3-yl]-3-methyl-5-{[5-(trifluoromethyl)pyrazin-2-yl]amino}-1,2-thiazole-4-carboxamide]	7500	1000
Cc1nsc(Nc2cnc3ccccc3n2)c1C(=O)Nc1ccc(OCCC(=O)OC(C)(C)C)nc1 [Example 198, tert-butyl 3-{[5-({[3-methyl-5-(quinoxalin-2-ylamino)-1,2-thiazol-4-yl]carbonyl}amino)pyridin-2-yl]oxy}propanoate]	6700	1000
Cc1nsc(Nc2ccc(C#N)cn2)c1C(=O)Nc1ccc(OCCC(=O)OC(C)(C)C)nc1 [Example 199, tert-butyl 3-({5-[({5-[(5-cyanopyridin-2-yl)amino]-3-methyl-1,2-thiazol-4-yl}carbonyl)amino]pyridin-2-yl}oxy)propanoate]	8700	950
Cc1nsc(Nc2cnc3ccccc3n2)c1C(=O)Nc1ccc(F)c(C(N)=O)c1 [Example 202, N-(3-carbamoyl-4-fluorophenyl)-3-methyl-5-(quinoxalin-2-ylamino)-1,2-thiazole-4-carboxamide]	> 10000	220
Cc1nsc(Nc2cncc(C(F)(F)F)n2)c1C(=O)Nc1ccc(F)c(C(N)=O)c1 [Example 204, N-(3-carbamoyl-4-fluorophenyl)-3-methyl-5-{[6-(trifluoromethyl)pyrazin-2-yl]amino}-1,2-thiazole-4-carboxamide]	> 10000	490
CNC(=O)c1ccc(NC(=O)c2c(C)nsc2Nc2ccc(C#N)cn2)cc1F [Example 208, 5-[(5-cyanopyridin-2-yl)amino]-N-[3-fluoro-4-(methylcarbamoyl)phenyl]-3-methyl-1,2-thiazole-4-carboxamide]	6000	330
CNS(=O)(=O)c1ccc(NC(=O)c2c(C)nsc2Nc2cnc(C(F)(F)F)cn2)cc1 [Example 212, 3-methyl-N-[4-(methylsulfamoyl)phenyl]-5-{[5-(trifluoromethyl)pyrazin-2-yl]amino}-1,2-thiazole-4-carboxamide]	> 10000	2000
Cc1nsc(Nc2cnc(C(F)(F)F)cn2)c1C(=O)Nc1ccc(OC2CCN(C(=O)OC(C)(C)C)CC2)c(F)c1 [Example 217, tert-butyl 4-(2-fluoro-4-{[(3-methyl-5-{[5-(trifluoromethyl)pyrazin-2-yl]amino}-1,2-thiazol-4-yl)carbonyl]amino}phenoxy)piperidine-1-carboxylate]	170	860
Cc1nsc(Nc2cncc(C(F)(F)F)n2)c1C(=O)Nc1ccc(OC2CCN(C(C)C)CC2)nc1 [Example 218, N-{6-[(1-isopropylpiperidin-4-yl)oxy]pyridin-3-yl}-3-methyl-5-{[6-(trifluoromethyl)pyrazin-2-yl]amino}-1,2-thiazole-4-carboxamide]	9900	380
Cc1nsc(Nc2cnc(C(F)(F)F)cn2)c1C(=O)Nc1ccc(OC2CCN(C)CC2)nc1 [Example 220, 3-methyl-N-{6-[(1-methylpiperidin-4-yl)oxy]pyridin-3-yl}-5-{[5-(trifluoromethyl)pyrazin-2-yl]amino}-1,2-thiazole-4-carboxamide]	6200	1100

Reference: patent US20170334899A1, “AMINO-SUBSTITUTED ISOTHIAZOLES” (Bayer Pharma Aktiengesellschaft, priority 2014, published 2017)
